Measurements: patent publication US4774232A, “Bile-substituting method of treatment for the promotion of fat digestion” (Chinoin Gyogyszer Es Vegyeszeti Termak Ek Gyara Rt, priority 1985, dated 1988)

Tests used:
bile duct-ligated rats = experiment: Substitution of the bile in rats: plasma total lipid after single fat dose; format: in vivo, rats (Etymis rattus var. albino)
Experimental: In the first series of experiments, the total lipid concentration of the plasma was investigated in bile-deficient rats.
The experimental rats (Etymis rattus var. albino) were kept on a standard food for 10 days before the experiment. The composition of this animal food was as follows:
The bile duct was ligated under ether anaesthesia.
In the 48th hour following the operation, 1.5 ml of swine fat or 1.5 ml of swine fat together with 75 mg of DIMEB were orally administered. After 4.5 hours, the animals were decapitated and the total lipid concentration of the plasma was determined according to the method of de La Huerga et al. [Amer. J. Clin. Pathol. 23, 1163 (1953)]

bile-deficient rats = experiment: Absorption of 3H-stearic acid with oral DIMEB in bile-deficient rats (Example 11); format: in vivo, CFY female rats; details: for Radioactivity in 10 ml of blood: 23.5 mg 3H-stearic acid + 60 mg DIMEB oral
Experimental: The substitution by DIMEB of the bile in bile-deficiency was studied in rats after ligating the bile duct.
After being starved for 24 hours, the animals (CFY female rats with an average body weight of 150 g) were subjected to a bile duct-ligation under nembutal anaesthesia. The absorption was investigated in the 48th hour after starving the animals overnight. The animals were starved in the course of the examination, too, but received water ad libitum. One group (consisting of 4 animals) received 22.2 mg of ^3 H-stearic acid (specific radioactivity: 92.5 kBq/mg), whereas the other group (consisting of 4 animals) was administered 23.5 mg of ^3 H-stearic acid and 60 mg of DIMEB in 2 ml of distilled water. The substances were suspended ultrasonically in the distilled water. Thereafter, the radioactivity level of the blood was measured at various intervals by using the liquid scintillation method (Table XII).

SMILES: COC[C@H]1O[C@@H]2O[C@H]3[C@H](O)[C@@H](OC)[C@@H](O[C@H]4[C@H](O)[C@@H](OC)[C@@H](O[C@H]5[C@H](O)[C@@H](OC)[C@@H](O[C@H]6[C@H](O)[C@@H](OC)[C@@H](O[C@H]7[C@H](O)[C@@H](OC)[C@@H](O[C@H]8[C@H](O)[C@@H](OC)[C@@H](O[C@H]1[C@H](O)[C@H]2OC)O[C@@H]8COC)O[C@@H]7COC)O[C@@H]6COC)O[C@@H]5COC)O[C@@H]4COC)O[C@@H]3COC [DIMEB, heptakis(2,6-di-O-methyl)-β-cyclodextrin]
- Increase of total lipid fraction in the blood plasma (bile duct-ligated rats; bile duct-ligated rats, 1.5 ml fat + 75 mg DIMEB): 5 fold
- Total lipid concentration of the blood plasma (bile duct-ligated rats; rats after bile duct-ligation, 1.5 ml fat + 75 mg DIMEB oral, after 4.5 hours): 1266.6 ± 86.5 mg/100 ml
- Radioactivity in 10 ml of blood (bile-deficient rats; 1 h, animal 5): 1.18 percentage
- Radioactivity in 10 ml of blood (bile-deficient rats; 1 h, animal 6): 1.41 percentage
- Radioactivity in 10 ml of blood (bile-deficient rats; 1 h, animal 7): 1.66 percentage
- Radioactivity in 10 ml of blood (bile-deficient rats; 1 h, animal 8): 0.50 percentage
- Radioactivity in 10 ml of blood (bile-deficient rats; 1 h, mean): 1.19 percentage
- Radioactivity in 10 ml of blood (bile-deficient rats; 2 h, animal 5): 1.46 percentage
- Radioactivity in 10 ml of blood (bile-deficient rats; 2 h, animal 6): 1.52 percentage
- Radioactivity in 10 ml of blood (bile-deficient rats; 2 h, animal 7): 1.52 percentage
- Radioactivity in 10 ml of blood (bile-deficient rats; 2 h, animal 8): 0.64 percentage
- Radioactivity in 10 ml of blood (bile-deficient rats; 2 h, mean): 1.28 percentage
- Radioactivity in 10 ml of blood (bile-deficient rats; 3 h, animal 5): 1.29 percentage
- Radioactivity in 10 ml of blood (bile-deficient rats; 3 h, animal 6): 1.63 percentage
- Radioactivity in 10 ml of blood (bile-deficient rats; 3 h, animal 7): 1.37 percentage
- Radioactivity in 10 ml of blood (bile-deficient rats; 3 h, animal 8): 0.61 percentage
- Radioactivity in 10 ml of blood (bile-deficient rats; 3 h, mean): 1.22 percentage
- Radioactivity in 10 ml of blood (bile-deficient rats; 4 h, animal 5): 1.42 percentage
- Radioactivity in 10 ml of blood (bile-deficient rats; 4 h, animal 6): 1.67 percentage
- Radioactivity in 10 ml of blood (bile-deficient rats; 4 h, animal 7): 1.56 percentage
- Radioactivity in 10 ml of blood (bile-deficient rats; 4 h, animal 8): 0.60 percentage
- Radioactivity in 10 ml of blood (bile-deficient rats; 4 h, mean): 1.31 percentage
- Radioactivity in 10 ml of blood (bile-deficient rats; 5 h, animal 5): 1.39 percentage
- Radioactivity in 10 ml of blood (bile-deficient rats; 5 h, animal 6): 1.73 percentage
- Radioactivity in 10 ml of blood (bile-deficient rats; 5 h, animal 7): 1.54 percentage
- Radioactivity in 10 ml of blood (bile-deficient rats; 5 h, animal 8): 0.69 percentage
- Radioactivity in 10 ml of blood (bile-deficient rats; 5 h, mean): 1.34 percentage
- Radioactivity in 10 ml of blood (bile-deficient rats; 6 h, animal 5): 1.41 percentage
- Radioactivity in 10 ml of blood (bile-deficient rats; 6 h, animal 6): 1.92 percentage
- Radioactivity in 10 ml of blood (bile-deficient rats; 6 h, animal 7): 1.76 percentage
- Radioactivity in 10 ml of blood (bile-deficient rats; 6 h, animal 8): 0.73 percentage
- Radioactivity in 10 ml of blood (bile-deficient rats; 6 h, mean): 1.45 percentage
- Radioactivity in 10 ml of blood (bile-deficient rats; 8 h, animal 5): 1.43 percentage
- Radioactivity in 10 ml of blood (bile-deficient rats; 8 h, animal 6): 1.90 percentage
- Radioactivity in 10 ml of blood (bile-deficient rats; 8 h, animal 7): 1.85 percentage
- Radioactivity in 10 ml of blood (bile-deficient rats; 8 h, animal 8): 0.72 percentage
- Radioactivity in 10 ml of blood (bile-deficient rats; 8 h, mean): 1.47 percentage
- Radioactivity in 10 ml of blood (bile-deficient rats; 10 h, animal 5): 1.57 percentage
- Radioactivity in 10 ml of blood (bile-deficient rats; 10 h, animal 6): 1.56 percentage
- Radioactivity in 10 ml of blood (bile-deficient rats; 10 h, animal 7): 1.45 percentage
- Radioactivity in 10 ml of blood (bile-deficient rats; 10 h, animal 8): 0.89 percentage
- Radioactivity in 10 ml of blood (bile-deficient rats; 10 h, mean): 1.37 percentage
- Radioactivity in 10 ml of blood (bile-deficient rats; 24 h, animal 5): 1.50 percentage
- Radioactivity in 10 ml of blood (bile-deficient rats; 24 h, animal 6): 1.94 percentage
- Radioactivity in 10 ml of blood (bile-deficient rats; 24 h, animal 7): 1.59 percentage
- Radioactivity in 10 ml of blood (bile-deficient rats; 24 h, animal 8): 1.95 percentage
- Radioactivity in 10 ml of blood (bile-deficient rats; 24 h, mean): 1.74 percentage
- Blood level relative to animals treated with stearic acid alone (bile-deficient rats; 24th hour): 2 times
- Blood radioactivity relative to animals treated with stearic acid alone (bile-deficient rats; time not given): 4.4 times
